The text below walks through data of patent publication US8759326B2, “Drug combinations containing PDE4 inhibitors and NSAIDs” (Boehringer Ingelheim International GmbH, priority 2009, dated 2014).

Data set [1] has as its system male Wistar rats. Put plainly: Experiment 3: weight loss, leukocytosis and neutrophilia in rats, roflumilast with or without SC-560 or lumiracoxib. Type of data set: in vivo, rat.
In data set [2] the test system is male Wistar rats. Put plainly: Experiment 4: diarrhoea and mesentery histopathology in rats, roflumilast with or without SC-560 or lumiracoxib. Type of data set: in vivo, rat. The settings on record: p.o. four days, roflumilast 10 mg/kg at 1300, SC-560 or lumiracoxib 2 mg/kg at 0800 and 1700, 95 hours after t0; for Diarrhoea: animals affected out of animals; for Mesentery: Proliferation of fibroblasts / Mesentery: multifocal perivascular mononuclear infiltration (=inflammation parameter): animals affected out of animals examined.
Method: (§1) For pharmacokinetic analysis (determining the plasma levels of the substances) on day 4 one rat from each group was used; these rats were no longer available for other parameters under investigation.
(§2) At the end of the experiment (95 hours after t0 (=the time of the first administration on day 1, 0800 hours)) the rats from the individual groups were examined phenotypically and histopathologically for the presence of multifocal perivascular mononuclear infiltration (=inflammation parameter) in the mesentery and for the proliferation of fibroblasts in the mesentery. In addition, the occurrence of diarrhoea in the rats from the different groups was noted.

For data set [3], the system named is male Wistar rats. Put plainly: Experiment 1: weight loss, leukocytosis and neutrophilia in rats, roflumilast with or without diclofenac.
Method: For pharmacokinetic analysis (determining the plasma levels of the substances) on day 4 one rate from each group was used; these rats were no longer available for other parameters under investigation.
The average±standard deviation of the body weights at time t0 was 355±17 g.
At the end of the experiment (95 hours after t0 (=the time of the first administration on day 1, 0800)) the proportion of white blood cells (×1000 cells/μl blood, FIG. 1B, left-hand Figure) and the proportion of neutrophils (in % of white blood cells, FIG. 1B, right-hand Figure) were determined from the blood of 4 or 5 of the rats from the individual groups.
For data set [4], the system named is male Wistar rats. The data set can be described thus: Experiment 2: diarrhoea and mesentery histopathology in rats, roflumilast with or without diclofenac. The conditions noted are these: roflumilast 10 mg/kg p.o. daily; six rats per group; between day 4 and day 5.
Method: as §1, §2

The structures appear in SMILES notation.

In the case of `COc1ccc(-n2nc(C(F)(F)F)cc2-c2ccc(Cl)cc2)cc1` [SC-560], the “protective effect on roflumilast-mediated weight loss, leukocytosis and neutrophilia” value in the data set on male Wistar rats [1] (SC-560 2 mg/kg p.o. at 0800 and 1700 co-administered with roflumilast 10 mg/kg, four days) is “absolutely no protective effect”. Further, the Diarrhoea with male Wistar rats [2] is on record as 0/6.

Regarding `O=C(O)Cc1ccccc1Nc1c(Cl)cccc1Cl` [diclofenac], the “parameters measured after the administration of the NSAID alone, compared with control” value in the data set with male Wistar rats [3] (diclofenac 1 mg/kg p.o. at 0800 and 1700, four days) is on record as “very similar to the control groups”.

With `Cc1ccc(Nc2c(F)cccc2Cl)c(CC(=O)O)c1` [lumiracoxib], in the data set on male Wistar rats [1] (2 mg/kg p.o. at 0800 and 1700, four days), the “parameters measured after the administration of the NSAID alone, compared with control” value is “very similar to the control groups”. Further, in the data set on male Wistar rats [2], the “Mesentery: Proliferation of fibroblasts” value is reported as 0/5, the “Mesentery: multifocal perivascular mononuclear infiltration (=inflammation parameter)” value is reported as 0/5 and the Diarrhoea was 0/6.

`O=C(Nc1c(Cl)cncc1Cl)c1ccc(OC(F)F)c(OCC2CC2)c1` [roflumilast]: in the data set on male Wistar rats [3] (roflumilast 10 mg/kg p.o. daily, six rats per group, between day 4 and day 5), the death of rats entry is “one rat”. Further, in the data set with male Wistar rats [1] (FIG. 2A, 2B, p.o. four days, roflumilast 10 mg/kg, lumiracoxib 2 mg/kg twice daily), the “PDE4 inhibitor-mediated side effects such as weight loss, leukocytosis, neutrophilia and diarrhoea” value is given as “observed”. Also, in the data set with male Wistar rats [4], the death of rats result was “one rat”. Further, in the data set on male Wistar rats [2], the “Mesentery: Proliferation of fibroblasts” value is reported as 5/5, the “Mesentery: multifocal perivascular mononuclear infiltration (=inflammation parameter)” value is given as 5/5 and the Diarrhoea is listed as 2/6.
